This is an account of results in PMC9220178, “Preclinical Characterization of Antioxidant Quinolyl Nitrone QN23 as a New Candidate for the Treatment of Ischemic Stroke” (Antioxidants, 2022).

Structures are written as SMILES.

Data set [1] concerns adult male Wistar rats, four-vessel occlusion (4VO) transient forebrain ischemia. Briefly: Neuronal apoptosis by TUNEL assay after transient global cerebral ischemia (4VO). In kind it is in vivo, rat. To be noted: for Neuroprotection (neuronal apoptosis, TUNEL): vehicle = 0%. The protocol: Transient forebrain ischemia was induced in adult male Wistar rats (10–12 weeks, Charles River, L’Arbresle, France) by the standard four-vessel occlusion (4VO) model previously described. Briefly, animals were anesthetized by intraperitoneal injection of a combination of ketamine, diazepam, and atropine (62.5, 5.0, and 0.25 mg/kg, respectively); positioned in a stereotactic device; and both vertebral arteries were cauterized. The next day, anesthesia was induced with 4% isoflurane and maintained at 2–2.5% isoflurane for carotid artery dissection. After anesthesia withdrawal, the carotid arteries were occluded with an atraumatic vascular clamp to induce brain ischemia. During the entire surgical procedure, temperature was monitored at 2 min intervals and kept at 37 °C. After 15 min of ischemia, the carotid arteries were unclamped for brain reperfusion. The animals were studied after 5 days of reperfusion (R5d), or after 11 weeks of reperfusion (long-term studies), and then they were euthanized under deep anesthesia. Animals from the sham control group were handled in the same way, but without occlusion of the carotid arteries. Ischemic animals were treated with vehicle solution (ethanol/polyethylene glycol 400/saline, 1:300:200 v/v), or with nitrones QN23 or NXY-059 in vehicle solution, as a single injection through the tail vein at the onset of reperfusion. For the therapeutic window experiments, the animals were also treated at reperfusion times 1, 3, and 6 h after ischemia. The treatments were prepared by an independent researcher and administered with concealed allocation. Treatments were administered in a randomized order obtained by a computer-based randomization program. To determine the sample size, a power analysis (http://www.biomath.info/power/ttest.htm, accessed on 12 March 2020) with significance level set at 0.05 and statistical power set at 0.8 (80%) rendered a sample size of <6 subjects per group. A total of 120 ischemic animals (30 animals treated with vehicle, 60 treated with QN23, and 30 treated with NXY-059) and 9 sham control animals were included in these studies. Additionally, 13 animals were excluded from the study: 6 animals were not ischemic and 7 animals died within the 24 h after the surgical procedure (5 vehicles, 1 QN23-treated at 1.0 mg/kg, and 1 QN23-treated at 2.0 mg/kg). The Animal Care Ethics Committee of the Hospital Universitario Ramón y Cajal (Madrid, Spain) authorized all the procedures involving the animal experimentation reported here (authorization number 04/2020). These experiments were performed according to ARRIVE guidelines and the legislation on the protection of animals used for scientific purposes in Spain (RD 53/2013) and the EU (Directive 2010/63/EU). The study was designed and conducted according to the STAIR guidelines regarding physiological monitoring, sample randomization, predefined exclusion criteria, allocation concealment, blinded assessment of outcomes, dose–response definition, and a conflict-of-interest statement.
After 5 days of reperfusion (R5d), or at 11 weeks of reperfusion in long-term studies, animals were euthanized by transcardiac perfusion via the left ventricle under deep anesthesia. First, blood was washed out with 200 mL of ice-cold saline medium, followed by fixation with 4% (w/v) paraformaldehyde solution in PBS for brain preservation. Then, the brains were carefully removed from the cranial cavity and placed in 4% (w/v) paraformaldehyde solution in PBS overnight at 4 °C. The next day, the brains were sequentially placed in 10%, 20%, and 30% (w/v) sucrose in PBS until sunken, and finally embedded in Tissue-Tek O.C.T. (Sakura Finetek, Torrance, CA, USA) before freezing at −80 °C. Brain coronal sections containing the hippocampus region were obtained by cryostat sectioning at the level of interaural line +5.7 ± 0.2 mm on Real Capillary Gap microscope slides (Agilent Dako, Santa Clara, CA, USA). […]

The subject of data set [2] is male Wistar rats, transient middle cerebral artery occlusion (tMCAO). Briefly: Neurofunctional score in transient focal cerebral ischemia (tMCAO). In kind it is in vivo. The settings on record: for Neurofunctional impairment compared with vehicle: 24 h and 48 h. The method, then:
For the transient focal cerebral ischemia experimental model we used 12-week-old male Wistar rats (300–350 g, Charles River), housed under standard conditions with food and water ad libitum. The animals were anesthetized by an intraperitoneal injection of a mixture of 100 mg/kg ketamine, 5 mg/kg diazepam, and 0.3 mg/kg atropine. Anesthesia was maintained during the surgical procedure by inhalation of 1–1.5% sevoflurane in 80% medicinal air plus 20% O2. For the transient occlusion of the right middle cerebral artery (tMCAO, 60 min), we followed the intraluminal suture procedure as originally described, adapted to our experimental setup. The procedure included continuous monitoring of cortical perfusion (CP, by Laser-Doppler flowmetry), arterial blood pressure, and core temperature, and discontinuous measurement of glycemia levels during preischemia (basal), ischemia, and reperfusion stages. Buprenorphine (subcutaneous, 0.05 mg/kg) was used as an analgesic. Forty-eight hours after the ischemic insult, the animals were euthanized by intracardiac injection of potassium chloride (200 mg/kg) under deep anesthesia, and the brains were obtained.
A power analysis (see above) provided a sample size of 6 subjects per group. A total of 35 animals was used in this study. The animals were randomly assigned to four experimental tMCAO groups, treated with (1) vehicle; (2) QN23, 1.5 mg/kg; (3) QN23, 2.5 mg/kg; and (4) QN23, 4 mg/kg. QN23 was dissolved in vehicle and injected through the femoral vein 20 min after the end of tMCAO. Nine animals were excluded from the study, based on predefined criteria, because of death within the first 24 h after the procedure (1 vehicle, 1 QN23-treated at 2.5 mg/kg, and 4 QN23-treated at 4.0 mg/kg) or due to no infarct after the procedure (1 vehicle, 1 QN23-treated at 1.5 mg/kg, and 1 QN23-treated at 2.5 mg/kg). Experiments were conducted in compliance with the legislation on the protection of animals used for scientific purposes in Spain (RD 53/2013) and the EU (Directive 2010/63/EU). […]
Twenty-four and 48 hours after the ischemic insult, the rats’ neurofunctional status was evaluated following the procedure previously reported. The severity of functional deficits was determined with the sum of the score of four tests assessing (a) spontaneous activity (moving/exploring = 0, no moving or moving only when pushed = 1), (b) circling to the left (none = 0, circling when elevated by the tail and pushed = 1, circling without displacement, spinning = 2), (c) parachute reflex: protective abduction of forelimbs (symmetrical = 0, asymmetrical, contralateral forelimb retracted = 1), and (d) resistance to left forepaw stretching (not allowed = 0, allowed = 1). […]

For `COc1ccc2nc(Cl)c(/C=[N+](\[O-])C(C)(C)C)cc2c1` [QN23, (Z)-N-tert-Butyl-1-(2-chloro-6-methoxyquinolin-3-yl)methanimine Oxide], the “Therapeutic window: injection time after reperfusion onset with significantly reduced apoptosis-positive cells” value in data set [1] (2.0 mg/kg i.v., CA1 and cortical regions, R5d, times tested 0, 1, 3, 6 h) is on record as “up to 3 h”. The “Neuroprotection (neuronal apoptosis, TUNEL)” value was determined as 16.2% in data set [1] (CA1, 1.5 mg/kg i.v. at reperfusion onset, R5d); 27.8% in data set [1] (CA1, 2.0 mg/kg i.v. at reperfusion onset, R5d); 85.0% in data set [1] (cortical region, 1.5 mg/kg i.v. at reperfusion onset, R5d); 88.0% in data set [1] (cortical region, 2.0 mg/kg i.v. at reperfusion onset, R5d). Besides, the “Number of apoptotic cells compared with vehicle” value in data set [1] (CA1 and cortical regions, 2.0 and 2.5 mg/kg i.v. at reperfusion onset, R5d) is “significant decrease”. Moreover, in data set [1] (either CA1 or cortical region, i.v., from dose-response curve), the “EC50 of neuroprotection, TUNEL assay” value is listed as 0.3 mg/kg. Also, the “Neurofunctional impairment compared with vehicle” value in data set [2] (1.5 mg/kg and 2.5 mg/kg i.v. 20 min after end of tMCAO) is listed as “significantly reduced”; in data set [2] (4 mg/kg i.v. 20 min after end of tMCAO), “not at 4 mg/kg”. In data set [2] (2.5 mg/kg i.v., tMCAO), the “Animals that died within 24 h” value is recorded as “one”. Also, the “Animals that died before 24 h” value in data set [2] (4 mg/kg i.v., tMCAO) was “four”.
